Data from patent US9376454B2, “Beta-lactamase inhibitors” (priority 2013, dated 2016).
Read-outs that look alike come from different tables or passages of the source.

Legend:
p99 AmpC β-lactamase = molecular target: T1, p99 AmpC β-lactamase (Enterobacter cloacae, UniProt P05364); assay: β-Lactamase inhibition enzyme assay, p99 AmpC; format: biochemical
T1 construct: made in house; host or cells: E. coli BL21(DE3)
Method in brief: (§1)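 Native untagged β-lactamases from E. coli BL21(DE3) were purified and preincubated with inhibitor 15 min at 37° C. Hydrolysis was then followed as initial rates: 100 μM nitrocefin at 486 nm for p99 AmpC and OXA-1, imipenem at 300 nm for KPC-2, cefotaxime at 260 nm for SHV-5. IC50 = 50% reduction versus no-inhibitor controls.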

[1] = molecular target: T2, VIM-2 metallo β-lactamase (Pseudomonas aeruginosa, UniProt Q9K2N0); assay: β-Lactamase inhibition enzyme assay, VIM-2; format: biochemical; conditions: Nitrocefin 100 μM as substrate, 486 nm; 15 min at 37° C. with enzyme, PBS pH 7.4; read-out: Class B VIM-2 IC50
T2 construct: made in house; host or cells: E. coli BL21(DE3)
Method in brief: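 Purified untagged VIM-2, expressed in E. coli BL21(DE3), preincubated with inhibitor 15 min at 37 °C. Nitrocefin added at 100 μM final, and absorbance at 486 nm monitored for 10 min. IC50 taken as inhibitor concentration halving initial hydrolysis rate relative to uninhibited controls.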

SHV-5 β-lactamase = molecular target: T3, SHV-5 β-lactamase (Klebsiella pneumoniae, UniProt P0A3M1); assay: β-Lactamase inhibition enzyme assay, SHV-5; format: biochemical
T3 construct: made in house; host or cells: E. coli BL21(DE3)
T3 sequence (P0A3M1 22-286): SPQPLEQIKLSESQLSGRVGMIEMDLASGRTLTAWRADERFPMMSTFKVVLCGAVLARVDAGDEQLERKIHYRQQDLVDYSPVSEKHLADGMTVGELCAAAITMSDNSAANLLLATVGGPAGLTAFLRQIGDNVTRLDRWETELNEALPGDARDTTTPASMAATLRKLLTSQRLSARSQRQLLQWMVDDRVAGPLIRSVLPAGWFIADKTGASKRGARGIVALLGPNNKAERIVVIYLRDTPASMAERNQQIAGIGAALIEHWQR
Method in brief: as §1

KPC-2 β-lactamase = molecular target: T4, KPC-2 β-lactamase (Klebsiella pneumoniae, UniProt Q9F663); assay: β-Lactamase inhibition enzyme assay, KPC-2; format: biochemical
T4 construct: made in house; host or cells: E. coli BL21(DE3)
T4 sequence (Q9F663 25-293, looked up): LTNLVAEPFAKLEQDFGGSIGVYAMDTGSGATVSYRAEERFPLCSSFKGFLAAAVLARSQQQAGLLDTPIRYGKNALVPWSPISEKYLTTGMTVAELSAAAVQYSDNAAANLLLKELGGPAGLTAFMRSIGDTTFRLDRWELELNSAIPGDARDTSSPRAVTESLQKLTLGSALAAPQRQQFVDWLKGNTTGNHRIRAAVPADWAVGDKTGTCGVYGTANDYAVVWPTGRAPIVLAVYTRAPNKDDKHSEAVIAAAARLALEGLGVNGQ
Method in brief: as §1

[2] = tested on: E. cloacae 144200 expressing p99 AmpC; assay: Broth microdilution MIC assay, E. cloacae P99; format: cell-based; conditions: fixed ceftazidime 4 μg/mL; CAMHB, 16-20 hours at 37° C.
OXA-1 β-lactamase = molecular target: T5, OXA-1 β-lactamase (Escherichia coli, UniProt P13661); assay: β-Lactamase inhibition enzyme assay, OXA-1; format: biochemical
T5 construct: made in house; host or cells: E. coli BL21(DE3)
T5 sequence (P13661 26-276): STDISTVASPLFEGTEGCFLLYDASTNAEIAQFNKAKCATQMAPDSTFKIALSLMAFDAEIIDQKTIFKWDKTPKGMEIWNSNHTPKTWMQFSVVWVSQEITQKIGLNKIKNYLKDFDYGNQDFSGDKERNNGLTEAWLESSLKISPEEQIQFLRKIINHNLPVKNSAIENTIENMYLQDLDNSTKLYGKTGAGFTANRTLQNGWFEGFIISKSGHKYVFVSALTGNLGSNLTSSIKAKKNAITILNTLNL
Method in brief: as §1

[3] = tested on: E. coli ESBL4 expressing CTX-M-15; assay: Broth microdilution MIC assay, E. coli CTX-M-15; format: cell-based; conditions: E. coli expressing Class A ESBL CTX-M-15
[4] = tested on: S. aureus MSSA-7 producing penicillinase PC-1; assay: Broth microdilution MIC assay, S. aureus PC-1; format: cell-based
[5] = tested on: K. pneumoniae A-1797 expressing KPC-2 and VIM-4; assay: Broth microdilution MIC assay, K. pneumoniae KPC-2 and VIM-4; format: cell-based; conditions: K. pneumoniae expressing KPC-2 and VIM-4
[6] = tested on: P. aeruginosa Ps296 expressing VIM-2; assay: Broth microdilution MIC assay, P. aeruginosa VIM-2; format: cell-based; conditions: P. aeruginosa expressing carbapenemase VIM-2
[7] = imipenem as substrate, 300 nm, 15 min at 37° C. with enzyme, PBS pH 7.4, read-out: Class A KPC-2 IC50
[8] = Nitrocefin 100 μM as substrate, 486 nm, 15 min at 37° C. with enzyme, PBS pH 7.4, read-out: Class D OXA-1 IC50

T1 sequence (P05364 21-381): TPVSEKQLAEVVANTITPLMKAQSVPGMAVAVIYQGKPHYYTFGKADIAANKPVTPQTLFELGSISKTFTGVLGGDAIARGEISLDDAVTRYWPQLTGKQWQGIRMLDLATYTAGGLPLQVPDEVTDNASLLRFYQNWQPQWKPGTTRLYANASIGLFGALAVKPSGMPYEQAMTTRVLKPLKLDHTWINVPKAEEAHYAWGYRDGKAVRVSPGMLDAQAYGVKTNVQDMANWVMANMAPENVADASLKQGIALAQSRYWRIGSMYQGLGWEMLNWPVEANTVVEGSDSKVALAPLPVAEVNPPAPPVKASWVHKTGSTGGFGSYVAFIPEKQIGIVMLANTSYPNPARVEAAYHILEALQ

Compound: NCc1cc(CN)cc(C(=O)N[C@H]2Cc3cccc(C(=O)O)c3OB2O)c1 [Example 44, (R)-3-(3,5-bis(aminomethyl)benzamido)-2-hydroxy-3,4-dihydro-2H-benzo[e][1,2]oxaborinine-8-carboxylic acid]
- IC50 (p99 AmpC β-lactamase): 0.1 to 1 µM
- IC50 [1]: 1 to 10 µM
- IC50 (SHV-5 β-lactamase): 1 to 10 µM
- IC50 (KPC-2 β-lactamase; [7]): 1 to 10 µM
- MIC of Exemplary Compounds in presence of fixed β-lactams: Fixed CAZ, E. cl. 144200 p99 AmpC [2]: C (C represents the MIC in the presence of ≦4 μg/mL of a β-lactamase inhibitor of exemplary compounds)
- IC50 (OXA-1 β-lactamase; [8]): 1 to 10 µM

Compound: CC(C)(O/N=C(\C(=O)N[C@@H]1C(=O)N2C(C(=O)[O-])=C(C[n+]3ccccc3)CS[C@H]12)c1csc(N)n1)C(=O)O [Ceftazidime]
- MIC alone of partner antibiotic [3]: > 128 mg/L

Compound: O=C(O)c1cccc2c1OB(O)[C@@H](NC(=O)C1(c3ccccc3)CCNCC1)C2 [Example 3, (R)-2-hydroxy-3-(4-phenylpiperidine-4-carboxamido)-3,4-dihydro-2H-benzo[e][1,2]oxaborinine-8-carboxylic acid]
- IC50 (p99 AmpC β-lactamase): < 0.1 µM
- IC50 [1]: 1 to 10 µM
- IC50 (SHV-5 β-lactamase): 10 to 100 µM
- IC50 (KPC-2 β-lactamase): < 0.1 µM
- MIC of Exemplary Compounds in presence of fixed β-lactams: Fixed Pip, S. aureus MSSA-7 PC-1 ([4]; fixed piperacillin 4 μg/mL, CAMHB, 16-20 hours at 37° C.): A (A represents an MIC of the fixed β-lactam antibiotic in the presence of >32 μg/mL of a β-lactamase inhibitor of exemplary compounds)
- IC50 (OXA-1 β-lactamase): 0.1 to 1 µM

Compound: CCN1CCN(C(=O)N[C@@H](C(=O)N[C@@H]2C(=O)N3[C@@H]2SC(C)(C)[C@@H]3C(=O)O)c2ccccc2)C(=O)C1=O [Piperacillin, reference compound]
- MIC alone of partner antibiotic ([4]; antibiotic alone, S. aureus producing penicillinase PC-1): 64 mg/L

Compound: C[C@@H](O)[C@H]1C(=O)N2C(C(=O)O)=C(S[C@@H]3CN[C@H](C(=O)N(C)C)C3)[C@H](C)[C@H]12 [Meropenem]
- MIC alone of partner antibiotic [5]: 64 mg/L
- MIC alone of partner antibiotic [6]: 16 mg/L

Compound: N=C(N)N1Cc2ccc(CC(=O)N[C@H]3Cc4cccc(C(=O)O)c4OB3O)cc2C1 [Example 37, (3R)-3-[[2-(2-carbamimidoylisoindolin-5-yl)acetyl]amino]-2-hydroxy-3,4-dihydro-1,2-benzoxaborinine-8-carboxylic acid]
- IC50 (p99 AmpC β-lactamase): < 0.1 µM
- IC50 [1]: 0.1 to 1 µM
- IC50 (SHV-5 β-lactamase): < 0.1 µM
- IC50 (KPC-2 β-lactamase; [7]): < 0.1 µM
- IC50 (OXA-1 β-lactamase; [8]): < 0.1 µM

Compound: N=C(N)NCc1cc(CNC(=N)N)cc(C(=O)N[C@H]2Cc3cccc(C(=O)O)c3OB2O)c1 [Example 45, (R)-3-(3,5-bis(guanidinomethyl)benzamido)-2-hydroxy-3,4-dihydro-2H-benzo[e][1,2]oxaborinine-8-carboxylic acid]
- IC50 (p99 AmpC β-lactamase): < 0.1 µM
- IC50 [1]: < 0.1 µM
- IC50 (SHV-5 β-lactamase): 0.1 to 1 µM
- IC50 (KPC-2 β-lactamase; [7]): < 0.1 µM
- IC50 (OXA-1 β-lactamase; [8]): < 0.1 µM

Compound: O=C(O)c1cccc2c1OB(O)[C@@H](NC(=O)C1(c3ccccc3)CC1)C2 [Example 1, (R)-2-hydroxy-3-(1-phenylcyclopropanecarboxamido)-3,4-dihydro-2H-benzo[e][1,2]oxaborinine-8-carboxylic acid]
- IC50 (p99 AmpC β-lactamase): < 0.1 µM
- IC50 [1]: 0.1 to 1 µM
- IC50 (SHV-5 β-lactamase): < 0.1 µM
- IC50 (KPC-2 β-lactamase; [7]): < 0.1 µM
- IC50 (OXA-1 β-lactamase; [8]): < 0.1 µM

Compound: O=C(N[C@H]1Cc2cccc(C(=O)O)c2OB1O)c1cnco1 [Example 52, (R)-2-Hydroxy-3-[(oxazole-5-carbonyl)-amino]-3,4-dihydro-2H-benzo[e][1,2]oxaborinine-8-carboxylic acid]
- IC50 (p99 AmpC β-lactamase): < 0.1 µM
- IC50 [1]: 0.1 to 1 µM
- IC50 (SHV-5 β-lactamase): < 0.1 µM
- IC50 (KPC-2 β-lactamase; [7]): < 0.1 µM
- IC50 (OXA-1 β-lactamase; [8]): < 0.1 µM

Compound: CN1CCc2cc(C(=O)N[C@H]3Cc4cccc(C(=O)O)c4OB3O)ccc2C1 [Example 7, (R)-2-hydroxy-3-(2-methyl-1,2,3,4-tetrahydroisoquinoline-6-carboxamido)-3,4-dihydro-2H-benzo[e][1,2]oxaborinine-8-carboxylic acid]
- IC50 (p99 AmpC β-lactamase): < 0.1 µM
- IC50 [1]: 0.1 to 1 µM
- IC50 (SHV-5 β-lactamase): < 0.1 µM
- IC50 (KPC-2 β-lactamase; [7]): < 0.1 µM
- IC50 (OXA-1 β-lactamase; [8]): 0.1 to 1 µM

Compound: N=C(N)N1Cc2ccc(C(=O)N[C@H]3Cc4cccc(C(=O)O)c4OB3O)cc2C1 [Example 16, (R)-3-(2-carbamimidoylisoindoline-5-carboxamido)-2-hydroxy-3,4-dihydro-2H-benzo[e][1,2]oxaborinine-8-carboxylic acid]
- IC50 (p99 AmpC β-lactamase): < 0.1 µM
- IC50 [1]: < 0.1 µM
- IC50 (SHV-5 β-lactamase): < 0.1 µM
- IC50 (KPC-2 β-lactamase; [7]): < 0.1 µM
- IC50 (OXA-1 β-lactamase; [8]): < 0.1 µM
